{"source": "ChEMBL document CHEMBL4507263", "about": "“Data for DCP probe BAY-474” (2021)", "key": {"[1]": {"target": "T1, cGMP-dependent protein kinase 1 (Homo sapiens) (UniProt Q13976)", "T1 sequence (whole entry)": "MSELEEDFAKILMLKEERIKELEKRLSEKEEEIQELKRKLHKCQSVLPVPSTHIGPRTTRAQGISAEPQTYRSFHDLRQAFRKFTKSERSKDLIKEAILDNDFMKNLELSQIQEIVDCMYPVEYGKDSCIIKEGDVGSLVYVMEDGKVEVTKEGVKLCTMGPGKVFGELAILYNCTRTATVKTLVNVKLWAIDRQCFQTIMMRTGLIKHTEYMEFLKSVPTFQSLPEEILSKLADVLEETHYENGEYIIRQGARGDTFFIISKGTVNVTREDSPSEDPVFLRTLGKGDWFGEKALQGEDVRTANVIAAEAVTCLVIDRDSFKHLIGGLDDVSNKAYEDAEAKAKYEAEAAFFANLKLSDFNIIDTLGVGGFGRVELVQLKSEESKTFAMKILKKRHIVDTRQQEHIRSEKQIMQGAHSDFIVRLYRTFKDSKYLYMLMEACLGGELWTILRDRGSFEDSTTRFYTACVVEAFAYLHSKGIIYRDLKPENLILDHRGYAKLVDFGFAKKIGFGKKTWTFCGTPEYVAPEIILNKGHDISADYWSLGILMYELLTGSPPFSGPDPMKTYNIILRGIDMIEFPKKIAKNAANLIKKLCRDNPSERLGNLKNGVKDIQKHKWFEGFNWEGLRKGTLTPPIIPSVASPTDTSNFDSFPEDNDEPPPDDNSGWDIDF", "test": "PKG1alpha (h) Millipore kinase activity assay", "conditions": "Compound concentration 1.0 uM"}, "[2]": {"target": "Ribosomal protein S6 kinase alpha-1 (Homo sapiens) (UniProt Q15418)", "test": "Rsk1 (h) Millipore kinase activity assay", "conditions": "Compound concentration 1.0 uM"}, "[3]": {"target": "Cysteinyl leukotriene receptor 1 (Homo sapiens) (UniProt Q9Y271)", "test": "Inhibition of Leukotriene, Cysteinyl CysLT1 at 10 µM in the Eurofins-Panlabs radioligand binding assay (Eurofins_assay_250460)", "parameters": "ligand concentration 0.3 nM, non-specific ligand with concentration 0.3 µM Leukotriene D4, incubation time 30 min, incubation temperature 25 °C", "conditions": "Compound concentration 10.0 uM"}, "[4]": {"target": "Serine/threonine-protein kinase 33 (Homo sapiens) (UniProt Q9BYT3)", "test": "STK33 (h) Millipore kinase activity assay", "conditions": "Compound concentration 1.0 uM"}, "[5]": {"target": "Serine/threonine-protein kinase Chk2 (Homo sapiens) (UniProt O96017)", "test": "CHK2 (h) Millipore kinase activity assay", "conditions": "Compound concentration 1.0 uM"}, "[6]": {"target": "Ephrin type-A receptor 4 (Homo sapiens) (UniProt P54764)", "test": "EphA4 (h) Millipore kinase activity assay", "conditions": "Compound concentration 1.0 uM"}, "[7]": {"target": "Mitogen-activated protein kinase kinase kinase 5 (Homo sapiens) (UniProt Q99683)", "test": "ASK1 (h) Millipore kinase activity assay", "conditions": "Compound concentration 1.0 uM"}, "[8]": {"target": "Serine/threonine-protein kinase 24 (Homo sapiens) (UniProt Q9Y6E0)", "test": "MST3 (h) Millipore kinase activity assay", "conditions": "Compound concentration 1.0 uM"}, "[9]": {"target": "Tyrosine-protein kinase Lck (Homo sapiens) (UniProt P06239)", "conditions": "Compound concentration 1000.0 nM"}, "[10]": {"target": "Serine/threonine-protein kinase pim-2 (Homo sapiens) (UniProt Q9P1W9)", "sequence (Q9P1W9 whole entry, looked up)": "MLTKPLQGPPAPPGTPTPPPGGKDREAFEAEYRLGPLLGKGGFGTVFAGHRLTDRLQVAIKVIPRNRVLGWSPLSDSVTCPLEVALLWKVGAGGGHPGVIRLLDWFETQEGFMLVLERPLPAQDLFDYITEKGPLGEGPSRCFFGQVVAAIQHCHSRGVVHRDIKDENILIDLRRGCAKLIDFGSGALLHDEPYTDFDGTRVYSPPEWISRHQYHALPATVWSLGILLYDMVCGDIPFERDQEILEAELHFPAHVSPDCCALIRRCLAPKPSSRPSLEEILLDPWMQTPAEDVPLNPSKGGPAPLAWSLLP", "conditions": "Compound concentration 1000.0 nM"}, "[11]": {"target": "Fibroblast growth factor receptor 3 (Homo sapiens) (UniProt P22607)", "conditions": "Compound concentration 1000.0 nM"}, "[12]": {"target": "cAMP-dependent protein kinase catalytic subunit alpha (Homo sapiens) (UniProt P17612)", "conditions": "Compound concentration 1000.0 nM"}, "[13]": {"target": "Tyrosine-protein kinase JAK1 (Homo sapiens) (UniProt P23458)", "sequence (P23458 whole entry)": "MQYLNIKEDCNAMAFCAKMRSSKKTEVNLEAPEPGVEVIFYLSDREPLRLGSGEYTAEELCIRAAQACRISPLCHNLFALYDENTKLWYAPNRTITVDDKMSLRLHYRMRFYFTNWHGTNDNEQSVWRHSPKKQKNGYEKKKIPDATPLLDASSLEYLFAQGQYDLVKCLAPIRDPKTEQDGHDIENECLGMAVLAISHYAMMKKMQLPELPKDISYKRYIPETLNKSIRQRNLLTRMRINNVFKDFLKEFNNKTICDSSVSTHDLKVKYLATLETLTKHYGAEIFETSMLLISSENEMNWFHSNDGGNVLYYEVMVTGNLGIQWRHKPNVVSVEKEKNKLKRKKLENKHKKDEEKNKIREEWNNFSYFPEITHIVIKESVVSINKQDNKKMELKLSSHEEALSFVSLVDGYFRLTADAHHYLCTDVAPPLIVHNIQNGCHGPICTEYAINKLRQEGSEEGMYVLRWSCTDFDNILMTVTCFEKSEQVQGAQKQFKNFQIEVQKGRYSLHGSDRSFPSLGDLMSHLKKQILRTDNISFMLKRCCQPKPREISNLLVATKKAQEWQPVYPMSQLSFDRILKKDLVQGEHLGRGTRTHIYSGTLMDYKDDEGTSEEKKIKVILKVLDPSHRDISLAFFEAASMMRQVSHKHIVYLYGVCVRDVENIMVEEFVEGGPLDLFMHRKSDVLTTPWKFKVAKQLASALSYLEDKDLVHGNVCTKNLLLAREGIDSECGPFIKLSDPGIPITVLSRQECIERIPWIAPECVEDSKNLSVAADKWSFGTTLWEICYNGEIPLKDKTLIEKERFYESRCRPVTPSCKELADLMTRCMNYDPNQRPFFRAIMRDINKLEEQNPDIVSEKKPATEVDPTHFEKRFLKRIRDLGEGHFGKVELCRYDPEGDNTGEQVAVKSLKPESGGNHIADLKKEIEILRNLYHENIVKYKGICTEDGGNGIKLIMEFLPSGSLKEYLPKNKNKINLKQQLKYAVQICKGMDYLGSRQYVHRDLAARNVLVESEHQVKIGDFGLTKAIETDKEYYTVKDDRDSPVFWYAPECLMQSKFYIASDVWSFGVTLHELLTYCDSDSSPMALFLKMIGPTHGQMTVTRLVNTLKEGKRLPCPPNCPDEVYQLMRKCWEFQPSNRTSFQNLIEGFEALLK", "conditions": "Compound concentration 1000.0 nM"}, "[14]": {"tested_on": "Phosphatidylinositol 4,5-bisphosphate 3-kinase catalytic subunit alpha isoform (Homo sapiens), P42336 [E542K]", "sequence (P42336 whole entry E542K, canonical isoform)": "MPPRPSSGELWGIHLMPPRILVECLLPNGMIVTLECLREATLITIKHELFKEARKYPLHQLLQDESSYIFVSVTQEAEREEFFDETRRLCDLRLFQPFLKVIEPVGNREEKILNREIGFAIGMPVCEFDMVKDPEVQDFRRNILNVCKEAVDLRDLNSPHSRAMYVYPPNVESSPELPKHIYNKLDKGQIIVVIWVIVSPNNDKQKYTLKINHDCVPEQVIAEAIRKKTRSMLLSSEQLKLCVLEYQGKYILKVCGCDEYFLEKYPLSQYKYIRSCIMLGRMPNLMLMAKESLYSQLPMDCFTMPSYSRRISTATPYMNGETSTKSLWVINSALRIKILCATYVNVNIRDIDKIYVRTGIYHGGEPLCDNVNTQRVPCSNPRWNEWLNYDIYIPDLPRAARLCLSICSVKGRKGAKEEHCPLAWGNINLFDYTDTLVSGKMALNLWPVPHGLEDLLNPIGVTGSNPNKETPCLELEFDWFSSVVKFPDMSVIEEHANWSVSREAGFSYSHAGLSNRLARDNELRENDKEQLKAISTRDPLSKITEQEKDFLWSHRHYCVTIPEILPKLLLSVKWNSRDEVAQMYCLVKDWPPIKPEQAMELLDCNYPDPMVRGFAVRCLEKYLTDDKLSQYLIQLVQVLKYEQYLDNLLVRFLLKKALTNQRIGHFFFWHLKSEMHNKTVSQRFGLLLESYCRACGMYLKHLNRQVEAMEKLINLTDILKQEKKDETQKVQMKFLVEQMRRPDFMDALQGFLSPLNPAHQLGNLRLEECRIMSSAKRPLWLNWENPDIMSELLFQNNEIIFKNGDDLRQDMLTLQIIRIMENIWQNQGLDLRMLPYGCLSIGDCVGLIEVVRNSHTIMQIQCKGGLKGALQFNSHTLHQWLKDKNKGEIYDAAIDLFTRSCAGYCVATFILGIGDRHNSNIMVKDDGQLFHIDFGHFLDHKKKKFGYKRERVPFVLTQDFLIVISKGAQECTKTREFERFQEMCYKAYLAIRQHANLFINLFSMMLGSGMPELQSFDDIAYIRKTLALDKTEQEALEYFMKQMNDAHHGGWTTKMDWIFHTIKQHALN", "conditions": "Compound concentration 1000.0 nM"}, "[15]": {"target": "Casein kinase I isoform alpha (Homo sapiens) (UniProt P48729)", "conditions": "Compound concentration 1000.0 nM"}, "[16]": {"tested_on": "Epidermal growth factor receptor (Homo sapiens), P00533 [UNDEFINED MUTATION]", "conditions": "Compound concentration 1000.0 nM"}, "[17]": {"tested_on": "Proto-oncogene tyrosine-protein kinase receptor Ret (Homo sapiens), P07949 [V804M]", "sequence (P07949 whole entry V804M)": "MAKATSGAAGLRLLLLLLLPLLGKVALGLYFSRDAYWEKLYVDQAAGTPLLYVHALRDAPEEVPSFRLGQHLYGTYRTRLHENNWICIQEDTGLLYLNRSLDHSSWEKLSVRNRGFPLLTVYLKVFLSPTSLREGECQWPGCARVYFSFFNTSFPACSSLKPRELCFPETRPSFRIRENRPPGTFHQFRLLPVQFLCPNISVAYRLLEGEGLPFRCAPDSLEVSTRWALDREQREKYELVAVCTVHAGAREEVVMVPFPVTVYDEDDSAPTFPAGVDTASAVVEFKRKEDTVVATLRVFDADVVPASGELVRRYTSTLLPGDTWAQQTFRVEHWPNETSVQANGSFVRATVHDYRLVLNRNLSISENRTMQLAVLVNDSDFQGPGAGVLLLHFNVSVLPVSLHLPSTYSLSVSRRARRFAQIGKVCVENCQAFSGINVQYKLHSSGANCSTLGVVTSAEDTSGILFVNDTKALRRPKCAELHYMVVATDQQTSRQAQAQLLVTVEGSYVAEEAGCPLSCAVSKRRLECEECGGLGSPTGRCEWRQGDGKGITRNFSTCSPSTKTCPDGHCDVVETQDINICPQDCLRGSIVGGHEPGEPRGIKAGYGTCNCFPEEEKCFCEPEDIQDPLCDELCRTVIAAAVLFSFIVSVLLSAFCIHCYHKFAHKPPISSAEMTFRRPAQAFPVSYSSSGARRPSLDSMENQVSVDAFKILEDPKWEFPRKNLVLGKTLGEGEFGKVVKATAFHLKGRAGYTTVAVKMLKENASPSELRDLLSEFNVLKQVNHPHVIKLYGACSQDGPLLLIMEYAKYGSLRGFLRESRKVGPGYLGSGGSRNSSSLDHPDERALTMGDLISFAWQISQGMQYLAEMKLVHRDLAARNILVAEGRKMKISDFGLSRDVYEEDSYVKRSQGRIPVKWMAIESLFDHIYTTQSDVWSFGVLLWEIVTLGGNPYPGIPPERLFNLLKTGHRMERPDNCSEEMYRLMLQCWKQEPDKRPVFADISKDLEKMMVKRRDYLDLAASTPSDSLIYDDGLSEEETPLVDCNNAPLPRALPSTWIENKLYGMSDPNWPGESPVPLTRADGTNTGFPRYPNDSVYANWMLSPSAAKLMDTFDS", "conditions": "Compound concentration 1000.0 nM"}, "D(1B) dopamine receptor": {"target": "D(1B) dopamine receptor (Homo sapiens, UniProt P21918)", "sequence (P21918 whole entry)": "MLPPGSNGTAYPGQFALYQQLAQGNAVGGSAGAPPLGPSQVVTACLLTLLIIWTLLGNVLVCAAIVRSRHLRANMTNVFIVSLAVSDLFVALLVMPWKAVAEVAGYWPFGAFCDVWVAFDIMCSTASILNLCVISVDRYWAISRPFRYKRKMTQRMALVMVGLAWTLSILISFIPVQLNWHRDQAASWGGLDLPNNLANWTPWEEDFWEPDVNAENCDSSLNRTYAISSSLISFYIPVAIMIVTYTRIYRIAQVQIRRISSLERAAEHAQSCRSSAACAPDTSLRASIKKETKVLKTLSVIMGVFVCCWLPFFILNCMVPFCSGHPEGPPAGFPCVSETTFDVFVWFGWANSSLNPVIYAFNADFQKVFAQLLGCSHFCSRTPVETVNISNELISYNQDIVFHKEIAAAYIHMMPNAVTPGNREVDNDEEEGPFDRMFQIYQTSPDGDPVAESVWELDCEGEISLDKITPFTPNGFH", "test": "GPCRScan assay: inhibition of D5", "parameters": "radioligand conc. used [nm] 2.0 – 3.0, parental cells HEKT"}, "[18]": {"target": "Ribosomal protein S6 kinase alpha-5 (Homo sapiens) (UniProt O75582)", "conditions": "Compound concentration 1000.0 nM"}, "[19]": {"target": "Mitogen-activated protein kinase 3 (Homo sapiens) (UniProt P27361)", "sequence (P27361 whole entry)": "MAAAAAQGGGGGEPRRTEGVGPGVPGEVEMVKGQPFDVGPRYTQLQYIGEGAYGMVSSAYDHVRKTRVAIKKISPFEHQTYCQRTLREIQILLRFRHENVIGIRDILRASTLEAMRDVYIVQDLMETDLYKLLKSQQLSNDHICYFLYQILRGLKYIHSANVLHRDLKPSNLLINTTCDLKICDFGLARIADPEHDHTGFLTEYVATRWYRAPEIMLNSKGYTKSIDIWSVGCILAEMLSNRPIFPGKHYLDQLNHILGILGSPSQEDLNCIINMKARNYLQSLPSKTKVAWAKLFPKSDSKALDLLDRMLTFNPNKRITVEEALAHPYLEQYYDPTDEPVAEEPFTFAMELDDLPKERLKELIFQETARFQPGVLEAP", "conditions": "Compound concentration 1000.0 nM"}, "[20]": {"target": "Dual specificity protein kinase CLK1 (Homo sapiens) (UniProt P49759)", "conditions": "Compound concentration 1000.0 nM"}, "[21]": {"target": "Glycogen synthase kinase-3 beta (Homo sapiens) (UniProt P49841)", "conditions": "Compound concentration 1000.0 nM"}, "[22]": {"target": "Tyrosine-protein kinase JAK1 (Homo sapiens) (UniProt P23458)", "conditions": "Compound concentration 1000.0 nM", "remark": "listed apart in the source"}, "[23]": {"target": "Serine/threonine-protein kinase RIO1 (Homo sapiens) (UniProt Q9BRS2)", "conditions": "Compound concentration 1000.0 nM"}, "[24]": {"target": "Bone morphogenetic protein receptor type-2 (Homo sapiens) (UniProt Q13873)", "conditions": "Compound concentration 1000.0 nM"}, "[25]": {"tested_on": "Receptor-type tyrosine-protein kinase FLT3 (Homo sapiens), P36888 [D835Y]", "conditions": "Compound concentration 1000.0 nM"}, "[26]": {"target": "Serine/threonine-protein kinase PAK 2 (Homo sapiens) (UniProt Q13177)", "conditions": "Compound concentration 1000.0 nM"}, "[27]": {"target": "Serine/threonine-protein kinase PLK2 (Homo sapiens) (UniProt Q9NYY3)", "conditions": "Compound concentration 1000.0 nM"}, "[28]": {"target": "Cytoplasmic tyrosine-protein kinase BMX (Homo sapiens) (UniProt P51813)", "conditions": "Compound concentration 1000.0 nM"}, "[29]": {"tested_on": "Tyrosine-protein kinase ABL1 (Homo sapiens), P00519 [F317L]", "conditions": "Compound concentration 1000.0 nM"}, "[30]": {"target": "Mitogen-activated protein kinase 1 (Homo sapiens) (UniProt P28482)", "conditions": "Compound concentration 1000.0 nM"}, "[31]": {"target": "Receptor tyrosine-protein kinase erbB-4 (Homo sapiens) (UniProt Q15303)", "conditions": "Compound concentration 1000.0 nM"}, "[32]": {"target": "Cyclin-dependent kinase-like 2 (Homo sapiens) (UniProt Q92772)", "conditions": "Compound concentration 1000.0 nM"}, "[33]": {"target": "Atypical kinase COQ8B, mitochondrial (Homo sapiens) (UniProt Q96D53)", "conditions": "Compound concentration 1000.0 nM"}, "[34]": {"target": "Serine/threonine-protein kinase Nek7 (Homo sapiens) (UniProt Q8TDX7)", "conditions": "Compound concentration 1000.0 nM"}, "[35]": {"target": "MAP kinase-interacting serine/threonine-protein kinase 2 (Homo sapiens) (UniProt Q9HBH9)", "sequence (Q9HBH9 whole entry, looked up)": "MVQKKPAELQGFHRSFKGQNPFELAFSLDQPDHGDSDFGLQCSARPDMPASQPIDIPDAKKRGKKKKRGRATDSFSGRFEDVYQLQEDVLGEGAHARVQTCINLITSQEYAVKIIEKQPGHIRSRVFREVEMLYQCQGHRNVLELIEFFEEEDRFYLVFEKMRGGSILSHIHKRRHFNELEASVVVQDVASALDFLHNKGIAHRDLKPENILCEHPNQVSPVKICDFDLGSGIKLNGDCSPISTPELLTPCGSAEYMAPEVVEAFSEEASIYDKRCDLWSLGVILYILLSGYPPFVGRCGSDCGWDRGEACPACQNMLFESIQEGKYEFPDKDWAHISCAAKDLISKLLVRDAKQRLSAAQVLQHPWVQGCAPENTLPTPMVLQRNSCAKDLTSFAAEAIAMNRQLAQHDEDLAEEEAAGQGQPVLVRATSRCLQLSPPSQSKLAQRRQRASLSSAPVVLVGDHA", "conditions": "Compound concentration 1000.0 nM"}}, "data": [{"smiles": "CC1=C(C#N)C(c2ccc3[nH]nc(C)c3c2)C(C#N)=C(C)N1", "note": "[BAY-474]", "values": [{"measurement": "inhibition", "setting": "[1]", "value": 7, "unit": "%"}, {"measurement": "inhibition", "setting": "[2]", "value": 46, "unit": "%"}, {"measurement": "inhibition", "setting": "[3]", "value": 8, "unit": "%"}, {"measurement": "inhibition", "setting": "[4]", "value": 2, "unit": "%"}, {"measurement": "inhibition", "setting": "[5]", "value": 4, "unit": "%"}, {"measurement": "inhibition", "setting": "[6]", "value": -5, "unit": "%"}, {"measurement": "inhibition", "setting": "[7]", "value": -6, "unit": "%"}, {"measurement": "inhibition", "setting": "[8]", "value": 10, "unit": "%"}]}, {"smiles": "CC1=C(C#N)[C@@H](c2ccc3[nH]nc(C)c3c2)C(C#N)=C(c2ccc(Cl)cc2)N1", "note": "[BAY-827]", "values": [{"measurement": "residual activity", "setting": "[9]", "value": 100, "unit": "%"}, {"measurement": "residual activity", "setting": "[10]", "value": 100, "unit": "%"}, {"measurement": "residual activity", "setting": "[11]", "value": 91.2, "unit": "%"}, {"measurement": "residual activity", "setting": "[12]", "value": 96.7, "unit": "%"}, {"measurement": "residual activity", "setting": "[13]", "value": 100, "unit": "%"}, {"measurement": "residual activity", "setting": "[14]", "value": 78.6, "unit": "%"}, {"measurement": "residual activity", "setting": "[15]", "value": 64.7, "unit": "%"}, {"measurement": "residual activity", "setting": "[16]", "value": 75.1, "unit": "%"}, {"measurement": "residual activity", "setting": "[17]", "value": 73.8, "unit": "%"}, {"measurement": "Ki", "setting": "D(1B) dopamine receptor", "value": 10, "unit": "µM"}, {"measurement": "residual activity", "setting": "[18]", "value": 100, "unit": "%"}, {"measurement": "residual activity", "setting": "[19]", "value": 100, "unit": "%"}, {"measurement": "residual activity", "setting": "[20]", "value": 100, "unit": "%"}, {"measurement": "residual activity", "setting": "[21]", "value": 69.6, "unit": "%"}, {"measurement": "residual activity", "setting": "[22]", "value": 38.2, "unit": "%"}, {"measurement": "residual activity", "setting": "[23]", "value": 100, "unit": "%"}, {"measurement": "residual activity", "setting": "[24]", "value": 100, "unit": "%"}, {"measurement": "residual activity", "setting": "[25]", "value": 93.5, "unit": "%"}, {"measurement": "residual activity", "setting": "[26]", "value": 100, "unit": "%"}, {"measurement": "residual activity", "setting": "[27]", "value": 100, "unit": "%"}, {"measurement": "residual activity", "setting": "[28]", "value": 100, "unit": "%"}, {"measurement": "residual activity", "setting": "[29]", "value": 94.2, "unit": "%"}, {"measurement": "residual activity", "setting": "[30]", "value": 100, "unit": "%"}, {"measurement": "residual activity", "setting": "[31]", "value": 100, "unit": "%"}, {"measurement": "residual activity", "setting": "[32]", "value": 97.9, "unit": "%"}, {"measurement": "residual activity", "setting": "[33]", "value": 78.8, "unit": "%"}, {"measurement": "residual activity", "setting": "[34]", "value": 87.4, "unit": "%"}, {"measurement": "residual activity", "setting": "[35]", "value": 90.6, "unit": "%"}]}]}
